Test results from ChEMBL document CHEMBL3137667, “[Drug-induced liver injury; fourteenth updated edition of the bibliographic database of liver injuries and related drugs]” (Gastroenterol Clin Biol, 2004).

How the values were obtained:
[1] = human
[2] = Proposed mechanism(s) of liver damage. [column 'MEC' in source]; conditions: human
[3] = human, serum, 4383 h
[4] = Highest frequency of acute liver toxicity observed during clinical trials, expressed as a percentage. [column '% AIGUE' in source]; conditions: human
[5] = human; remark: listed apart in the source
[6] = Comments (NB not yet translated). [column 'COMMENTAIRES' in source]; conditions: human
[7] = human; remark: listed apart in the source
[8] = Times to onset, minimal and maximal, observed in the indexed observations. [column 'DELAI' in source]; conditions: human
[9] = human, serum
[10] = Highest frequency of moderate liver toxicity observed during clinical trials, expressed as a percentage. [column '% BIOL' in source]; conditions: human
[11] = human; remark: listed apart in the source
[12] = human; remark: listed apart in the source
[13] = human; remark: listed apart in the source
[14] = human; remark: listed apart in the source
[15] = human; remark: listed apart in the source
[16] = human, serum; remark: listed apart in the source
[17] = human; remark: listed apart in the source
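Wherever Hepatotoxicity (association with vascular disease) is given: count of indexed literature references reporting vascular liver injury in humans, e.g. peliosis hepatitis, hepatic veno-occlusive disease or Budd-Chiari syndrome.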
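Wherever Hepatotoxicity (benign tumour) is given: value is a count of indexed literature references citing a benign tumour confirmed by histopathology.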
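Wherever Hepatotoxicity (choleostasis) is given: human cholestatic liver injury, shown by histopathology or by peak ALT or AST elevation over alkaline phosphatase ratio below 2, value counts indexed literature reports.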
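Wherever Hepatotoxicity (chronic liver disease) is given: chronic liver injury confirmed by histopathology or persistently raised serum aminotransferase activity beyond 6 months, value given as the count of indexed literature references.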
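Wherever Hepatotoxicity (cirrhosis) is given: value is a count of indexed literature references reporting cirrhosis confirmed by histopathology.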
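Wherever Hepatotoxicity (cytolytic) is given: human cytolytic liver injury, shown by histopathology or by a ratio above 5 of peak ALT or AST elevation to alkaline phosphatase elevation, value counts indexed references.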
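Wherever Hepatotoxicity (granulomatous hepatitis) is given: value is a count of indexed literature references reporting granulomatous liver disease confirmed by histopathology.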
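Wherever Hepatotoxicity (malignant tumour) is given: malignant tumour confirmed by histopathology, value gives the count of indexed literature references reporting it.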
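Wherever Hepatotoxicity (severe hepatitis) is given: human clinical data: severe hepatitis, meaning potentially life-threatening liver failure or clinically observed cases, the value counts how many indexed literature references report it.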
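Wherever Hepatotoxicity (steatosis) is given: steatosis confirmed by histopathology, value is the count of indexed references.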

Compound | Hepatotoxicity (severe hepatitis) [1] | Hepatotoxicity (mechanism) [2] | Hepatotoxicity (chronic liver disease) [3] | Hepatotoxicity (acute) [4] | Hepatotoxicity (cirrhosis) [5] | Hepatotoxicity (comment) [6] | Hepatotoxicity (benign tumour) [7] | Hepatotoxicity (time to onset) [8] | Hepatotoxicity (moderate) [9] | Hepatotoxicity (moderate) [10] | Hepatotoxicity (steatosis) [11] | Hepatotoxicity (malignant tumour) [12] | Hepatotoxicity (granulomatous hepatitis) [13] | Hepatotoxicity (cytolytic) [14] | Hepatotoxicity (association with vascular disease) [15] | Hepatotoxicity (acute) [16] | Hepatotoxicity (choleostasis) [17] | other results
CC1=C(/C=C/C(C)=C/C=C/C(C)=C/C(=O)O)C(C)(C)CCC1 [TRETINOIN] | 2 | Dose-dependant | 0 | 16.7% | 0 | CHOLANGITE | 0 | 10 days - 38 days | 26 | 85% | 0 | 0 | 0 | 3 | 0 | 10 | 4 | 
C[C@]12C=CC(=O)C=C1CC[C@@H]1[C@@H]2C(=O)C[C@@]2(C)[C@H]1CC[C@]2(O)C(=O)CO [PREDNISONE] | 1 | Dose-dependant | 0 | 0% | 0 | AGGRAVATION/REACTIVATION_HVB HNF LITHIASE | 1 | 10 months | 1 | 80% | 0 | 0 | 0 | 0 | 0 | 0 | 0 | 
Cc1c(C)c2c(c(C)c1O)CC[C@@](C)(CCC[C@H](C)CCC[C@H](C)CCCC(C)C)O2 [ALPHA-TOCOPHEROL] |  |  | 0 |  | 0 | CONCERNE_E-FEROL* | 0 | 1 week - 2 months | 0 |  | 0 | 0 |  |  | 0 | 3 |  | Hepatotoxicity (severe hepatitis) ([1]; Liver): 4; Hepatotoxicity (mechanism) ([2]; Liver): Dose-dependant; Hepatotoxicity (acute) ([4]; Liver): 0%; Hepatotoxicity (moderate) ([10]; Liver): 0%; Hepatotoxicity (granulomatous hepatitis) ([13]; Liver): 0; Hepatotoxicity (cytolytic) ([14]; Liver): 3; Hepatotoxicity (choleostasis) ([17]; Liver): 3
CC[C@H]1OC(=O)[C@H](C)[C@@H](O[C@H]2C[C@@](C)(OC)[C@@H](O)[C@H](C)O2)[C@H](C)[C@@H](O[C@@H]2O[C@H](C)C[C@H](N(C)C)[C@H]2O)[C@](C)(O)C[C@@H](C)CN(C)[C@H](C)[C@@H](O)[C@]1(C)O [AZITHROMYCIN] | 0 | Allergic | 0 | 0% | 0 | CHOLANGITE | 0 | 3 days - 18 days | 53 | 40% | 0 | 0 | 0 | 0 | 0 | 5 | 4 | 
CCC(C)n1ncn(-c2ccc(N3CCN(c4ccc(OCC5COC(Cn6cncn6)(c6ccc(Cl)cc6Cl)O5)cc4)CC3)cc2)c1=O (stereo not drawn) [ITRACONAZOLE] | 1 | Dose-dependant | 0 | 30% | 0 | CHOLANGITE DUCTOPENIE HNF | 1 | 5 days - 7 months | 55 | 91.7% | 1 | 0 | 0 | 10 | 0 | 18 | 10 | 
CN1CCC(=C2c3ccccc3C=Cc3ccccc32)CC1 [CYPROHEPTADINE] | 0 | Allergic | 0 | 0% | 0 | CHOLESTASE_PROLONGEE CHOLANGITE | 0 | 1 week - 1 month | 0 | 0% | 0 | 0 | 0 | 3 | 0 | 5 | 3 | 
Fc1ccc([C@@H]2CCNC[C@H]2COc2ccc3c(c2)OCO3)cc1 [PAROXETINE] | 1 | Allergic | 1 | 2% | 0 | AC_ANTI-N I/ATRIUM* RC/DOSULEPINE | 0 | 6 days - 15 months | 6 | 11% | 0 | 0 | 0 | 5 | 0 | 8 | 2 | 
CC(=O)OCC1=C(C(=O)O)N2C(=O)[C@@H](NC(=O)Cc3cccs3)[C@H]2SC1 [CEPHALOTHIN] | 0 | Allergic | 0 | 0% | 0 | RC/NAFCILLINE/OXACILLINE/CEFAPIRINE | 0 | 1 day - 1 month | 4 | 1.5% | 0 | 0 | 0 | 1 | 0 | 4 | 1 | 
INTERFERON ALFA | 1 | Dose-dependant | 0 | 0% | 1 | AGGRAVATION_HEPATITE_AUTOIMMUNE/B/DELTA AC_ANTI-ML/LKM/CH | 0 | 8 days - 8 months | 21 | 58% | 3 | 0 | 0 | 2 | 0 | 2 | 1 | 
